Results on one compound are retold here after patent US20030162834A1, “Natural physiologically active material effective on fish diseases and fish food containing the material” (priority 1998, published 2003).

What all share (format): in vivo
One assay deals with Heterobothrium okamotoi. The assay can be described thus: Trial 3: oral octanoic acid, Heterobothrium okamotoi challenge trial on tiger puffer. Conditions: 2.5 g octanoic acid per 1 kg pellets. As to the method:
Fish tested: Tiger puffer weighing approximately 133.6 g in average.
Trial groups: Two groups, i.e., an octanoic-acid added group in which fish were fed diets added with octanoic acid, and a control group in which fish were fed diets not added with octanoic acid. The feeding rate was 1% of fish weight/day for each group.
Trial diets: The diets added with octanoic acid were prepared by spraying 2.5 g of octanoic acid to 1 kg of commercially available pellets for tiger puffer. The control group fish were fed the commercially available pellets for tiger puffer.
Challenge trial: Each 12 pieces of fish (normal fish) from among a shoal of fish, in which no diseases such as Heterobothrium okamotoi infection were found, were put in a 100-liter water tank, and were fed the respective trial diets. After 7 days, 6 pieces of fish (infected fish), which had been infected in advance with approximately 100 individuals of Heterobothrium okamotoi, were added to each trial group. Then, bleeding was continued for 73 days while feeding the trial diets. In this trial, the parasites Heterobothrium okamotoi in the infected fish were in the stage of adult. After 30 days from adding the infected fish, 4 pieces of normal fish were sampled from each group, and the number of parasites attaching to the gill was counted. During the trial period, the water temperature was in the range of 16.5-20.9 degrees centigrade and the water was exchanged at 20 cycles/day.
Evaluation was made by comparing mortality of the fish in respective groups during the trial period, and by counting the number of parasites attaching to the gill of the infected fish in each group for investigation of the remedy efficacy and the infection preventable efficacy.

The test system of assay [1] is Cryptocaryon irritans. The assay can be described thus: Trial 8: octanoic acid versus its monoglyceride and triglyceride, oral, red sea bream. Particulars: diet amount equal to 17.5 mM octanoic acid residues (2.5 g acid, 3.8 g monoglyceride, 2.7 g triglyceride per kg). From the text:
(§1) Fish tested: Red sea bream weighing approximately 15.8 g in average.
Trial groups: Four groups, i.e., an octanoic-acid added group in which fish were fed diets added with octanoic acid, a monoglyceride added group in which fish were fed diets added with monoglyceride of octanoic acid, a triglyceride added group in which fish were fed diets added with triglyceride of octanoic acid, and a control group in which fish were fed diets added with neither octanoic acid nor glycerides. The feeding rate was 3% of fish weight/day for each group.
Trial diets: The diets added with octanoic acid were prepared by spraying 2.5 g (17.5 mM with respect to the diet weight) of octanoic acid to 1 kg of commercially available pellets for red sea bream. […]. Specifically, the diets added with monoglyceride and triglyceride were prepared respectively by spraying 3.8 g of monoglyceride and 2.7 g of triglyceride to 1 kg of the commercially available pellets for red sea bream. The control group fish were fed the commercially available pellets for red sea bream.
Challenge trial: Each 10 pieces of fish from among a shoal of fish, in which no diseases such as Cryptocaryon irritans infection were found, were put in a 100-liter water tank, and were fed the respective trial diets. After 5 days, approximately 2000 individuals of theronts of Cryptocaryon irritans were put into each water tank to infect the fish while water flow was stopped for 1 hour. Then, bleeding was continued for 31 days while feeding the respective trial diets. During the trial period, the water temperature was 24+−1 degrees centigrade and the water was exchanged at 20 cycles/day.
Evaluation was made by sampling 5 pieces of fish from each group after 18 and 31 days from the start of the challenge, and comparing the number of the parasites attaching to the gill of each fish.

The test system of another assay is Benedenia seriolae. Kind of assay: Trial 5: oral octanoic acid, field trial on amberjack. Conditions: 8 g octanoic acid per 1 kg pellets, 9 days. How it is done: (§2) Fish tested: Amberjack weighing approximately 117 g in average.
(§3) Trial groups: Two groups, i.e., an octanoic-acid added group in which fish were fed diets added with octanoic acid, and a control group in which fish were fed diets not added with octanoic acid. The feeding rate was 3% of fish weight/day for each group.
(§4) Trial diets: The diets added with octanoic acid were prepared by spraying 8 g of octanoic acid to 1 kg of commercially available pellets for amberjack. The control group fish were fed the commercially available pellets for amberjack.
(§5) Trial: The trial was conducted using off-shore net pens of 10×10×9 m placed in the field sea. Each 15000 pieces of fish for each group were treated with a parasiticide containing commercially available hydrogen peroxide as a main ingredient, and then put in each net pen. At this time, it was confirmed that Heteraxine heterocerca parasitizing to the gill and Benedenia seriolae parasitizing on the body surface were eliminated, by investigating 20 pieces of fish for each group. It was also simultaneously confirmed that blood flukes (Pradeontacylix) were present in the fish, by investigating the presence of eggs in the gill filaments. Then, bleeding was continued for 9 days while feeding the trial diets. The water temperature during the trial period was in the range of 18.5-20.0 degrees centigrade.
(§6) Evaluation was made by sampling 20 pieces of fish from each group after 9 days from the start of the bleeding, and counting and comparing the number of Heteraxine heterocerca in the gill of each sampled fish, the number of Benedenia seriolae on the body surface, and the number of eggs of blood flukes (Paradeontacylix) in the gill filaments.

A further assay deals with Heteraxine heterocerca. Described as above. Conditions: 8 g octanoic acid per 1 kg pellets, 9 days. As to the method: as §2, §3, §4, §5, §6
Assay [2] deals with blood flukes (Paradeontacylix). The assay is described as above. Particulars: 8 g octanoic acid per 1 kg pellets, 9 days. As to the method:
as §2, §3, §4, §5, §6

Assay [3] has as its system Cryptocaryon irritans. Kind of assay: Trial 7: vitamin C enhancement trial on red sea bream. Particulars: oral.
Description: as §1
Trial groups: Three groups, i.e., an octanoic-acid added group in which fish were fed diets added with octanoic acid, an octanoic-acid added/vitamin-C enhanced group in which fish were fed diets added with both octanoic acid and vitamin C, and a control group in which fish were fed diets not added with octanoic acid. The feeding rate was 3% of fish weight/day for each group.
Trial diets: The diets added with octanoic acid were prepared by spraying 2.5 g of octanoic acid to 1 kg of commercially available pellets for red sea bream. The diets added with both octanoic acid and vitamin C were prepared by spraying 200 mg of vitamin C, dissolved in water, to 1 kg of the above diets added with octanoic acid. The control group fish were fed the commercially available pellets for red sea bream.
Challenge trial: Each 30 pieces of fish from among a shoal of fish, in which no diseases such as Cryptocaryon irritans infection were found, were put in a 100-liter water tank, and were fed the respective trial diets. After 5 days, approximately 2000 individuals of theronts of Cryptocaryon irritans were put into each water tank to infect the fish while water flow was stopped for 1 hour. Then, bleeding was continued for 60 days. During the trial period, the water temperature was 24+−1 degrees centigrade and the water was exchanged at 20 cycles/day.
Evaluation was made by sampling 5 pieces of fish from each group after 18 and 31 days from the start of the challenge, comparing the number of the parasites attaching to the gill of each fish, and comparing mortality of the fish during the trial period between the respective groups.

On to `CCCCCCCC(=O)O` [octanoic acid], for which, in the assay with Heterobothrium okamotoi, the “number of parasites attaching to the normal fish after 30 days, versus control” value is “apparently reduced”. For the same compound, in the assay with Heterobothrium okamotoi (73 days), the “number of parasites (adults and larvae) attaching to infected fish survived at the end of the trial, versus control” value is “apparently reduced”; the “numbers of parasites in normal fish survived at the end and fish died during the trial” value is “apparently reduced”. Moreover, the “adults attaching to each survived infected fish at the end of the trial” value in the assay with Heterobothrium okamotoi (73 days, approximately 100 at the start) is on record as “approximately 27 individuals”. Moreover, the “survival rate of the infected fish at the end of the trial” value in the assay with Heterobothrium okamotoi (73 days, control 16.7%) was found to be 66.7%. Moreover, in the assay with Heterobothrium okamotoi (cohabitation with infected fish 73 days, control 0%), the “survival rate of the normal fish” value came to 75%. For the same compound, the “number of parasites attaching to the gill after 18 and 31 days, versus control” value with Cryptocaryon irritans [1] is “apparently fewer”. The “number of Benedenia seriolae on the body surface, versus control” value with Benedenia seriolae was “no appreciable difference”. Besides, the “number of Heteraxine heterocerca in the gill, versus control” value in the assay with Heteraxine heterocerca is reported as “apparently fewer”. The “eggs of blood flukes in the gill filaments” value in assay [2] is “no eggs of blood flukes were observed”. In addition, in the assay on Cryptocaryon irritans [3] (2.5 g octanoic acid per 1 kg pellets (with or without 200 mg vitamin C per kg)), the “number of parasites attaching to the gill after 18 and 31 days” value was “apparently fewer”. In addition, the “fish mortality during the trial” value in the assay with Cryptocaryon irritans [3] (2.5 g octanoic acid per 1 kg pellets (with or without 200 mg vitamin C per kg), 60 days) is given as “all dead”. Further, the “time at which the fish began dying, versus control” value with Cryptocaryon irritans [3] (2.5 g octanoic acid per 1 kg pellets) is listed as “later”.
